This test has as its system rats with alloxan diabetes. The test can be described thus: Hypoglycemic activity, alloxan diabetes model in rats (Example 1). It counts as in vivo, rat. The method, then:
The pharmaceutical compositions for determination of anti-diabetic action had the following composition: active compound—1 g, potato starch—1 g, water—100 ml.
The comparison of anti-diabetic action of compounds was carried out using a standard model of alloxan diabetes and metmorphin as a comparative drug. The alloxan diabetes was induced by a single subcutaneous injection of water solution of alloxan hydrate (ICN Biomedicals, USA) at a dose of 150 mg/kg to rats weighting 180-200 g that have fasted for 24 hours. The following animal groups were studied: intact rats, diabetic non-treated rats, diabetic rats receiving Polfa-Kutno Ltd.″ metmorphin daily (for 23 days, 200 mg/kg); diabetic rats receiving daily (for 20 days) the abovementioned pharmaceutical compositions containing, as an active components, the compounds described in this invention: MC-200-MC-225. The compounds were administered intragastrically once a day in starch gel at a dose of 50 mg/kg rat weight.
The experimental drug doses were selected assuming the expected therapeutic doses for man and previously determined toxic doses (LD50 of studied compounds was approximately 500-1,000 mg/kg). The metmorphin dose for rats was extrapolated from the therapeutic dose for man. Drug administration was started on the third day after alloxan injection when blood glucose level increased approximately 3-fold as compared to control value. Each group consisted of 20 animals of both genders.

Where [1] appears, read: diabetic rats' blood, in 10 days, compounds 50 mg/kg intragastrically once a day in starch gel, metmorphin 200 mg/kg daily.
Setting [2] is: diabetic rats' blood, in 20 days, compounds 50 mg/kg intragastrically once a day in starch gel, metmorphin 200 mg/kg daily.

The values below come from patent publication US8247407B2, priority 2007, dated 2012).

Where a name gives a salt, the structure may show the parent alone.

Turning to `CCOC(=O)c1c(CS(=O)(=O)c2ccccc2)n(C)c2cc(Br)c(O)c(CN(C)C)c12` [MC-222, 1-methyl-2-phenylsulfonylmethyl-3-carbethoxy-4-dimethylaminomethyl-5-hydroxy-6-bromoindole], the “Glucose content, mmol/l, in 10 days” value under setting [1] amounted to 6.4 ± 0.3 mmol/L. The “Glucose content, mmol/l, in 20 days” value under setting [2] came out at 6.2 ± 0.3 mmol/L.

Turning to `CCOC(=O)c1c(C[S+]([O-])Cc2ccccc2OC)n(C)c2cc(Br)c(O)c(CNC(=N)N)c12` (stereo not shown) [MC-218, 1-methyl-2-(o-methoxy)-benzylsulfinylmethyl-3-carbethoxy-4-guanidinomethyl-5-hydroxy-6-bromoindole hydrochloride], the “Glucose content, mmol/l, in 10 days” value under setting [1] was determined as 7.2 ± 0.4 mmol/L. Besides, the “Glucose content, mmol/l, in 20 days” value under setting [2] stood at 7.1 ± 0.4 mmol/L.

In the case of `CCOC(=O)c1c(CN(C)C)n(C)c2cc(-c3cccnc3)c(O)c(CN3CCCC3)c12` [MC-211, 1-methyl-2-dimethylaminomethyl-3-carbethoxy-4-pyrrolidinomethyl-5-hydroxy-6-(pyridine-3-yl)indole trihydrochloride], the “Glucose content, mmol/l, in 10 days” value under setting [1] turned out to be 5.0 ± 0.2 mmol/L. Also, the “Glucose content, mmol/l, in 20 days” value under setting [2] was found to be 4.8 ± 0.2 mmol/L.

In the case of `CCOC(=O)c1c(CN(C)C)n(C)c2cc(-c3cccnc3)c(O)cc12` [MC-208, 1-methyl-2-dimethylaminomethyl-3-carbethoxy-5-hydroxy-6-(pyridine-3-yl)indole], under setting [1], the “Glucose content, mmol/l, in 10 days” value amounted to 9.8 ± 0.4 mmol/L. Moreover, the “Glucose content, mmol/l, in 20 days” value under setting [2] came to 9.5 ± 0.4 mmol/L.

As to `CCOC(=O)c1c(CN2CCCC2)n(C)c2cc(-c3cccnc3)c(O)c(CN(C)C)c12` [MC-212, 1-methyl-2-pyrrolidinomethyl-3-carbethoxy-4-dimethylaminomethyl-5-hydroxy-6-(pyridine-3-yl)indole trihydrochloride], the “Glucose content, mmol/l, in 10 days” value under setting [1] is 5.2 ± 0.3 mmol/L. Moreover, the “Glucose content, mmol/l, in 20 days” value under setting [2] stood at 5.1 ± 0.3 mmol/L.

Regarding `CCOC(=O)c1c(CS(=O)(=O)c2ccccc2)n(C)c2cc(-c3cccnc3)c(O)c(CN(C)C)c12` [MC-210, 1-methyl-2-phenylsulfonylmethyl-3-carbethoxy-4-dimethylaminomethyl-5-hydroxy-6-(pyridine-3-yl)indole], the “Glucose content, mmol/l, in 10 days” value under setting [1] was 5.4 ± 0.2 mmol/L. In addition, the “Glucose content, mmol/l, in 20 days” value under setting [2] was found to be 5.3 ± 0.3 mmol/L.

In the case of `CCOC(=O)c1c(CSc2ccccc2)n(Cc2ccccc2)c2cc(Br)c(O)c(CN(C)C)c12` [MC-205, 1-benzyl-2-phenylthiomethyl-3-carbethoxy-4-dimethylaminomethyl-5-hydroxy-6-bromoindole], under setting [1], the “Glucose content, mmol/l, in 10 days” value came to 8.4 ± 0.6 mmol/L. Also, the “Glucose content, mmol/l, in 20 days” value under setting [2] amounted to 8.1 ± 0.5 mmol/L.

For `CCOC(=O)c1c(CSCc2ccccc2)n(C2CC2)c2cc(Br)c(O)c(CNC(=N)N)c12` [MC-219, 1-cyclopropyl-2-benzylthiomethyl-3-carbethoxy-4-guanidinomethyl-5-hydroxy-6-bromoindole], for the setting “rat, in vivo”, the “Glucose content, mmol/l, in 10 days” value was determined as 9.3 ± 0.6 mmol/L and the “Glucose content, mmol/l, in 20 days” value stood at 9.0 ± 0.5 mmol/L.

As for `CCOC(=O)c1c(CSc2ccc(CC)cc2)n(C)c2cc(Br)c(O)c(CN(C)C)c12` [MC-202, 1-methyl-2-(p-ethyl)-phenyl-thiomethyl-3-carbethoxy-4-dimethylaminomethyl-5-hydroxy-6-bromoindole], under setting [1], the “Glucose content, mmol/l, in 10 days” value stood at 7.3 ± 0.5 mmol/L. Further, under setting [2], the “Glucose content, mmol/l, in 20 days” value was 7.0 ± 0.4 mmol/L.

For the molecule `CCOC(=O)c1c(CSc2ccccc2)n(-c2ccc(C)cc2)c2cc(Br)c(O)c(CN(C)C)c12` [MC-204, 1-p-toluyl-2-phenylthiomethyl-3-carbethoxy-4-dimethylaminomethyl-5-hydroxy-6-bromoindole], the “Glucose content, mmol/l, in 10 days” value under setting [1] came to 6.4 ± 0.3 mmol/L. Besides, the “Glucose content, mmol/l, in 20 days” value under setting [2] was 6.2 ± 0.3 mmol/L.

For the molecule `CCOC(=O)c1c(CSc2ccccc2)n(C)c2cc(-c3cccnc3)c(O)c(CN(C)C)c12` [MC-215, 1-methyl-2-phenylthiomethyl-3-carbethoxy-4-dimethylaminomethyl-5-hydroxy-6-pyridinyl-3 indole], the “Glucose content, mmol/l, in 10 days” value under setting [1] was 5.6 ± 0.2 mmol/L. Moreover, under setting [2], the “Glucose content, mmol/l, in 20 days” value was 5.4 ± 0.3 mmol/L.

Regarding `CCOC(=O)c1c(CN(C)C)n(C)c2cc(-c3cccnc3)c3c(c12)CN(C)CO3`, the “Glucose content, mmol/l, in 10 days” value under setting [1] stood at 5.6 ± 0.3 mmol/L. Moreover, the “Glucose content, mmol/l, in 20 days” value under setting [2] worked out at 5.4 ± 0.5 mmol/L.

As for `CCOC(=O)c1c(C[S+]([O-])c2ccccc2)n(C)c2cc(Br)c(O)c(CN(C)C)c12` (stereo not shown) [MC-223, 1-methyl-2-phenylsulfinylmethyl-3-carbethoxy-4-dimethylaminomethyl-5-hydroxy-6-bromoindole], under setting [1], the “Glucose content, mmol/l, in 10 days” value is 8.4 ± 0.6 mmol/L. Moreover, the “Glucose content, mmol/l, in 20 days” value under setting [2] was 8.2 ± 0.6 mmol/L.

In the case of `CCOC(=O)c1c(C[S+]([O-])c2ccccc2)n(C)c2cc(Br)c(O)cc12` (stereo not shown) [MC-225, 1-methyl-2-phenylsulfinylmethyl-3-carbethoxy-5-hydroxy-6-bromoindole], the “Glucose content, mmol/l, in 10 days” value under setting [1] was found to be 8.2 ± 0.5 mmol/L. Moreover, the “Glucose content, mmol/l, in 20 days” value under setting [2] stood at 7.9 ± 0.4 mmol/L.

Turning to `CCOC(=O)c1c(CSc2ccccc2)n(C)c2cc(C#N)c(O)c(CN(C)C)c12` [MC-216, 1-methyl-2-phenylthiomethyl-3-carbethoxy-4-dimethylaminomethyl-5-hydroxy-6-cyano indole], the “Glucose content, mmol/l, in 10 days” value under setting [1] turned out to be 8.4 ± 0.4 mmol/L. Also, the “Glucose content, mmol/l, in 20 days” value under setting [2] was determined as 8.1 ± 0.4 mmol/L.

Turning to `CCOC(=O)c1c(CS(=O)(=O)c2ccccc2)n(C)c2cc(-c3cccnc3)c(O)c(CNC)c12` [MC-214, 1-methyl-2-phenylsulfonylmethyl-3-carbethoxy-4-methylaminomethyl-5-hydroxy-6-pyridinyl-3 indole dihydrochloride], the “Glucose content, mmol/l, in 10 days” value under setting [1] turned out to be 10.2 ± 0.8 mmol/L. For the same molecule, the “Glucose content, mmol/l, in 20 days” value under setting [2] was found to be 9.9 ± 0.7 mmol/L.

For `CCOC(=O)c1c(C[S+]([O-])Cc2ccc(F)c(F)c2)n(C2CC2)c2cc(Br)c(O)c(CN3CCN(C)CC3)c12` (stereo not shown) [MC-221, 1-cyclopropyl-2-(3,4-difluor)benzylsulfinyl-methyl-3-carbethoxy-4-(N-methyl)-piperazinomethyl-5-hydroxy-6-bromoindole dihydrochloride], under setting [1], the “Glucose content, mmol/l, in 10 days” value was 7.3 ± 0.4 mmol/L. Also, the “Glucose content, mmol/l, in 20 days” value under setting [2] turned out to be 7.2 ± 0.4 mmol/L.

Turning to `CCOC(=O)c1c(CSCc2ccccc2)n(C)c2cc(Br)c(O)c(CN(C)C)c12` [MC-206, 1-methyl-2-benzylthiomethyl-3-carbethoxy-4-dimethylaminomethyl-5-hydroxy-6-bromoindole], under setting [1], the “Glucose content, mmol/l, in 10 days” value is 11.2 ± 0.7 mmol/L. In addition, the “Glucose content, mmol/l, in 20 days” value under setting [2] was 10.8 ± 0.6 mmol/L.

`CCOC(=O)c1c(C[S+]([O-])Cc2ccc(F)cc2)n(C)c2cc(Br)c(O)c(CN3CCOCC3)c12` (stereo not shown) [MC-220, 1-methyl-2-(p-fluor)-benzylsulfinylmethyl-3-carbethoxy-4--4-morpholinomethyl-5-hydroxy-6-bromoindole hydrochloride]: under setting [1], the “Glucose content, mmol/l, in 10 days” value came out at 5.9 ± 0.2 mmol/L. Under setting [2], the “Glucose content, mmol/l, in 20 days” value was found to be 5.8 ± 0.2 mmol/L.

For the molecule `CCOC(=O)c1c(CSc2ccc(C)cc2)n(C)c2cc(Br)c(O)c(CN(C)C)c12` [MC-201, 1-methyl-2-p-toluilthiomethyl-3-carbethoxy-4-dimethyl-aminomethyl-5-hydroxy-6-bromoindole], the “Glucose content, mmol/l, in 10 days” value under setting [1] amounted to 6.4 ± 0.4 mmol/L. For the same molecule, the “Glucose content, mmol/l, in 20 days” value under setting [2] was 6.2 ± 0.3 mmol/L.
